Common to all, as to format: biochemical
The target of one assay is T1, CDK4/Cyclin D1 (Homo sapiens, UniProt P24385).
T1 construct: made in house; host or cells: CDK4: Sf9 insect cells (baculovirus)
Kind of assay: CDK4/Cyclin D1 kinase assay, phosphorylation of GST-Rb. The following applies: GST-pRb substrate, [ATP] = 100 μM. How it is done:
(§1) The phosphorylation reaction mixture (total volume 40 μl) consisted of 50 mM HEPES pH 7.4, 20 mM MgCl2, 5 mM EGTA, 2 mM DTT, 20 mM β-glycerophosphate, 2 mM NaF, 1 mM Na3VO4, Protease Inhibitors Cocktail (Sigma, see above), BSA 0.5 mg/ml, 1 μg purified enzyme complex, 10 μl of GST-Rb-Sepharose beads, 100 μM ATP, 0.2 μCi ^32P-ATP. The reaction was carried out for 30 min at 30° C. at constant shaking. At the end of this period 100 μl of 50 mM HEPES, pH 7.4 and 1 mM ATP were added to each well and the total volume was transferred onto GFC filtered plate. The plate was washed 5 times with 200 μl of 50 mM HEPES, pH 7.4 and 1 mM ATP. To each well were added 50 μl scintillant liquid and the radioactivity of the samples was measured on Scintilation counter (Topcount, HP). The IC50 values of different peptides were calculated using GraFit software.
Peptides were synthesized as described above. Cyclin D1 was expressed in E coli BL21(DE3) using PET expression vector and purified from the inclusion bodies. After refolding Cyclin D1 was cross-linked on SulfoLink agarose support (PIERCE). CDK4-6×His was expressed in Sf9 insect cells infected with the appropriate baculovirus construct and purified by metal-affinity chromatography (Quiagen). […] CDK4/Cyclin D1 phosphorilation of Rb was determined by incorporation of radio-labeled phosphate in GST-Rb in 96-well format kinase assay. […] The reaction was carried out for 30 min at 30 C at constant shaking. The GST-Rb-Sepharose beads were washed with 50 mM HEPES and 1 mM ATP and the radioactivity was measured on Scintillation counter (Topcount, HP)

Another assay has as its target T2, CDK2/Cyclin E (Homo sapiens, UniProt P24864).
T2 construct: 6xHis; made in house; host or cells: Sf9 insect cells (baculovirus co-expression)
In words: CDK2/Cyclin E kinase assay, phosphorylation of GST-Rb. As to conditions: GST-pRb substrate, [ATP] = 100 μM. Here is the method: as §1

For the next assay, the target named is CDK2/cyclin A (Homo sapiens, UniProt P20248). In words: CDK2/cyclin A kinase assay, substrate pRb(773-928). As to conditions: for Relative activity Kinase Inhibition: Arg156 substitutions, relative to H-His-Ala-Lys-Arg-Arg-Leu-Ile-Phe-NH2 (=1), pRb substrate, [ATP] = 100 μM. The source says: Reactions were stopped on ice, followed by filtration through p81 filterplates (Whatman Polyfiltronics, Kent, UK).

Square brackets hold non-standard residues; d marks the D form. Psa = O-acetylphenylserine Some results are limits rather than exact numbers.

T1 sequence (P24385 whole entry): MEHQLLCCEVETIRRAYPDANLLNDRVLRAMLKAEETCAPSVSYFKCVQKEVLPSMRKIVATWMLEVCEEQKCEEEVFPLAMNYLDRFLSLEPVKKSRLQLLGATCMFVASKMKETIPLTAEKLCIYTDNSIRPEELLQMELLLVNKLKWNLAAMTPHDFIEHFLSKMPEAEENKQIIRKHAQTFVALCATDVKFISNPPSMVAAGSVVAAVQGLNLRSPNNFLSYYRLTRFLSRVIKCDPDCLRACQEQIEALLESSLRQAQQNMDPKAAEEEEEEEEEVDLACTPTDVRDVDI
T1 sequence (P11802 whole entry partner): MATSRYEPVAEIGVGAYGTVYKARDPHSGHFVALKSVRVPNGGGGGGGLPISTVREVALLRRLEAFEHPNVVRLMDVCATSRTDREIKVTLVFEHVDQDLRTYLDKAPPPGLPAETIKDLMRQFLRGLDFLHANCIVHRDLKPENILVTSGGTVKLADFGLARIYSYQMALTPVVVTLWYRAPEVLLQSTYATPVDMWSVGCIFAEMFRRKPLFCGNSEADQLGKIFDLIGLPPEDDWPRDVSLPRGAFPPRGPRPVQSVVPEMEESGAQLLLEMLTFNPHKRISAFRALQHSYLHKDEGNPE

DFYHSKRR (H-DFYHSKRR-NH2): the “Kinase Inhibition Cyclin D1/CDK4 % Inhibition” value with CDK4/Cyclin D1 is recorded as 10%. The “Kinase Inhibition Cyclin E/CDK2 % Inhibition” value with CDK2/Cyclin E is given as 40%.
Turning to DFYHSKRRAIFS (H-DFYHSKRRAIFS-NH2), the “Kinase Inhibition Cyclin D1/CDK4 % Inhibition” value with CDK4/Cyclin D1 is reported as 30%. Further, the “Kinase Inhibition Cyclin E/CDK2 % Inhibition” value with CDK2/Cyclin E came to 30%.
For the substance DFYHSKRRL, at CDK4/Cyclin D1, the “Kinase Inhibition Cyclin D1/CDK4 % Inhibition” value is on record as 10%. On CDK2/Cyclin E, the “Kinase Inhibition Cyclin E/CDK2 % Inhibition” value was found to be 50% and the “Kinase Inhibition Cyclin E/CDK2 IC30” value is 200 µM.
DFYHSKRRLAFS: at CDK4/Cyclin D1, the “Kinase Inhibition Cyclin D1/CDK4 % Inhibition” value was found to be 61% and the “Kinase Inhibition Cyclin D1/CDK4 IC30” value was found to be 53 ± 20 µM. Besides, on CDK2/Cyclin E, the “Kinase Inhibition Cyclin E/CDK2 % Inhibition” value was determined as 80% and the “Kinase Inhibition Cyclin E/CDK2 IC30” value came to 14 ± 3 µM.
As to DFYHSKRRLI (H-DFYHSKRRLI-NH2), the “Kinase Inhibition Cyclin D1/CDK4 % Inhibition” value with CDK4/Cyclin D1 is on record as 20%. In addition, in the assay with CDK2/Cyclin E, the “Kinase Inhibition Cyclin E/CDK2 % Inhibition” value is 35%.
As for DFYHSKRRLIAS (H-DFYHSKRRLIAS-NH2), in the assay with CDK4/Cyclin D1, the “Kinase Inhibition Cyclin D1/CDK4 % Inhibition” value worked out at 35%. Further, in the assay with CDK2/Cyclin E, the “Kinase Inhibition Cyclin E/CDK2 % Inhibition” value is on record as 20%.
Take DFYHSKRRLIF: at CDK4/Cyclin D1, the “Kinase Inhibition Cyclin D1/CDK4 % Inhibition” value is recorded as 70% and the “Kinase Inhibition Cyclin D1/CDK4 IC30” value amounted to 13 ± 2 µM. On CDK2/Cyclin E, the “Kinase Inhibition Cyclin E/CDK2 % Inhibition” value was 75% and the “Kinase Inhibition Cyclin E/CDK2 IC30” value was 2 ± 0.2 µM.
Take DFYHSKRRLIFA: at CDK4/Cyclin D1, the “Kinase Inhibition Cyclin D1/CDK4 % Inhibition” value is reported as 60% and the “Kinase Inhibition Cyclin D1/CDK4 IC30” value was determined as 40 µM. Moreover, the “Kinase Inhibition Cyclin E/CDK2 % Inhibition” value at CDK2/Cyclin E is given as 70%.
For the substance FYHSKRR, the “Kinase Inhibition Cyclin D1/CDK4 % Inhibition” value at CDK4/Cyclin D1 came to 20%. Also, on CDK2/Cyclin E, the “Kinase Inhibition Cyclin E/CDK2 % Inhibition” value is 45% and the “Kinase Inhibition Cyclin E/CDK2 IC30” value is more than 200 µM.
FYHSKRRL: the “Kinase Inhibition Cyclin D1/CDK4 % Inhibition” value at CDK4/Cyclin D1 is given as 20%. In addition, on CDK2/Cyclin E, the “Kinase Inhibition Cyclin E/CDK2 % Inhibition” value is 48% and the “Kinase Inhibition Cyclin E/CDK2 IC30” value is more than 200 µM.
Consider FYHSKRRLI (H-FYHSKRRLI-NH2), for which the “Kinase Inhibition Cyclin D1/CDK4 % Inhibition” value with CDK4/Cyclin D1 was 20%. The “Kinase Inhibition Cyclin E/CDK2 % Inhibition” value with CDK2/Cyclin E is reported as 45%.
Turning to FYHSKRRLIF, on CDK4/Cyclin D1, the “Kinase Inhibition Cyclin D1/CDK4 % Inhibition” value amounted to 70% and the “Kinase Inhibition Cyclin D1/CDK4 IC30” value was found to be 19 ± 3 µM. For the same substance, the “Kinase Inhibition Cyclin E/CDK2 % Inhibition” value on CDK2/Cyclin E came out at 80%.
As for FYHSKRRLIFS, at CDK4/Cyclin D1, the “Kinase Inhibition Cyclin D1/CDK4 % Inhibition” value worked out at 70% and the “Kinase Inhibition Cyclin D1/CDK4 IC30” value came to 22 ± 5 µM. For the same substance, at CDK2/Cyclin E, the “Kinase Inhibition Cyclin E/CDK2 % Inhibition” value is 80% and the “Kinase Inhibition Cyclin E/CDK2 IC30” value stood at 6.8 ± 1.0 µM.
On to FYHSKRRLIFSK, for which, on CDK4/Cyclin D1, the “Kinase Inhibition Cyclin D1/CDK4 % Inhibition” value is reported as 70% and the “Kinase Inhibition Cyclin D1/CDK4 IC30” value amounted to 41 ± 10 µM. Also, the “Kinase Inhibition Cyclin E/CDK2 % Inhibition” value at CDK2/Cyclin E is 70%.
Regarding H-His-Ala-Lys-Arg-Aib-Leu-Ile Phe-NH2, in the assay with CDK2/cyclin A, the “Relative activity Kinase Inhibition” value was less than 0.1.
“H-His-Ala-Lys-Arg-Arg-Leu-Ile-[L-Psa]-OH (H-HAKRRLI[Psa]-OH)”: in the assay with CDK2/cyclin A (b370: CDK2/cyclin A inhibition and/or cyclin A binding), the “inhibition of CDK2/cyclin A (pRb phosphorylation), in words” value is on record as “particularly potent”.
With H-His-Ala-Lys-Arg-Sar-Leu-Ile Phe-NH2, the “Relative activity Kinase Inhibition” value with CDK2/cyclin A was less than 0.1.
For HSKRRL, at CDK2/Cyclin E, the “Kinase Inhibition Cyclin E/CDK2 % Inhibition” value is listed as 45% and the “Kinase Inhibition Cyclin E/CDK2 IC30” value is more than 200 µM.
As to HSKRRLI (H-HSKRRLI-NH2), in the assay with CDK4/Cyclin D1, the “Kinase Inhibition Cyclin D1/CDK4 % Inhibition” value came out at 10%. Moreover, in the assay with CDK2/Cyclin E, the “Kinase Inhibition Cyclin E/CDK2 % Inhibition” value stood at 35%.
For HSKRRLIFS, at CDK4/Cyclin D1, the “Kinase Inhibition Cyclin D1/CDK4 % Inhibition” value turned out to be 65% and the “Kinase Inhibition Cyclin D1/CDK4 IC30” value is 32 ± 6 µM. In addition, the “Kinase Inhibition Cyclin E/CDK2 % Inhibition” value at CDK2/Cyclin E stood at 80%.
